Article PMC11314343, “Improving the Solubility, Stability, and Bioavailability of Albendazole through Synthetic Salts” (Molecules, 2024)
Converted amounts (≈) assume the structure as drawn.

What was measured:
[1] = Dynamic vapor sorption (DVS), moisture adsorption isotherms; format: physicochemical; settings: for water adsorption: 25 °C, at 90% RH
Description: The moisture sorption characteristics of all specimens were assessed at a temperature of 25 °C using an automated dynamic vapor sorption analyzer (Surface Measurement Systems, Wembley, UK). Prior to the sorption examination, the samples were equilibrated at a humidity level of 0% relative humidity (RH) to remove any adsorbed moisture. The specimens underwent a gradual variation in relative humidity, transitioning from 0 to 90% RH at intervals of 10% RH. Humidity was adjusted by increasing it by +10% RH after 6 h or upon achieving the equilibrium condition. The equilibrium condition was met when there was a <0.002% change in mass per minute within a span of 10 min. Upon completion of the sorption sequence, all samples were subjected to drying at 0% RH, which was stopped when the Δm/Δt was less than 0.002%/min within 10 min.

[2] = Intrinsic dissolution rate (IDR); format: physicochemical; settings: 37 °C
Description: The powdered sample (140 mg) was measured and compacted to a tablet hardness of 5 Kg by a tester, employing a small manual tablet press. […] Then, 0.3 mL of the solution was withdrawn, at 1 min intervals, and subsequently subjected to centrifugation (15,000 rpm, 3 min). Afterward, it was subjected to double dilution with methanol and analyzed for the presence of the drug using HPLC.

[3] = Solid-state stability, influencing factor testing (strong light, high humidity, elevated temperature); format: physicochemical; settings: for stability under influencing factor conditions: 4500 ± 500 lux; for stability under influencing factor conditions / crystal transformation (PXRD): 92.5 ± 5% RH, 50 ± 2 °C; for crystal transformation (PXRD): strong light 4500 ± 500 lux, 0, 5, 10 days; for change of IDR on the 5th and 10th days compared to day 0: strong light, high humidity and high temperature
Description: Influencing factor testing included a strong light irradiation test, a high-humidity test, and an elevated temperature test. The strong light irradiation test involved placement of the sample opening under a light with an intensity of 4500 ± 500 lux. The high-humidity test involved placement of the sample in a constant-humidity container at 25 °C and 92.5% RH (saturated potassium nitrate solution). The high-temperature test involved placing the sample in a DHG-9070A constant-temperature oven (Shanghai Yiheng Technology Instrument Co., Ltd., Shanghai, China), set at 50 °C. Samples were taken on the 0th, 5th, and 10th days, and the crystal structure and dissolution of the samples were assessed for significant differences based on PXRD and IDR, as outlined above.

[4] = Pharmacokinetic comparison in Wistar rats after oral administration
Description: In vivo pharmacokinetic examination of albendazole and albendazole salts was performed in a half-male and half-female group of Wistar rats (n = 6), with an average body weight of 200 ± 20 g. The rats were fasted for one night before administration of albendazole at a dose of 25 mg/kg by gavage. Blood sampling was conducted by placing a jugular vein catheter surgically the day before administration. […] The tubes were centrifuged at 13,000× g for 10 min, and the upper plasma was collected and stored in an ultra-low-temperature freezer at −80 °C. Samples were processed by obtaining 100 μL of plasma; then, 400 μL of methanol was added, the samples were vortexed for 1 min, and they were centrifuged at 13,000× g for 5 min. Finally, 300 μL of the supernatant was obtained. A mixture of 6 μL of 10 μG/mL toluidazole internal standard solution was added to the supernatant. After 1 min of vortexing, the samples were centrifuged at 13,000× g for 5 min. The supernatant was then filtered through a microporous filter membrane before employing UPLC-HR-ESI-MS to assess the drug content.
The plasma concentrations of ABZ were assessed using a Dionex Ultimate 3000 RSLC system (Thermo Fisher, Waltham, MA, USA) equipped with an ACQUITY UPLC BEH C18 Column (130 Å, 150 mm × 2.1 mm × 2.6 μm) at a column temperature of 30 ± 1 °C. […] The MS analysis was conducted using a Q-Orbitrap MS coupled with heated electrospray ionization (HESI, Washington, DC, USA). The MS analysis was performed in full MS-ddMS^2 mode, with damping gas in the C-trap and nitrogen used to stabilize the spray. The auxiliary gas heater and capillary temperatures were established and maintained at 350 °C and 320 °C, respectively. In the negative mode, a spray voltage of 3.0 kV and an S-lens RF level of 60 V were employed. The full MS-ddMS^2 scan range was from 150.0000 to 1000.0000 m/z, and the precise molecular weight […] was employed for qualitative analysis. The corresponding peak area was utilized for quantitative analysis, and the MS^2 fragments were employed in further qualitative analysis.
The pharmacokinetic parameters were examined through non-compartment model analysis using DAS 2.0.

[5] = parameters: method as in PMID 12527162; settings: cited from earlier work
[6] = parameters: method as in PMID 18938096; settings: cited from earlier work
[7] = water at 25 °C; cited from earlier work
[8] = Accelerated stability testing; format: physicochemical; settings: for stability under accelerated test conditions: 40 °C/75 ± 5% RH; for PXRD spectra under accelerated stability conditions: 40 ± 2 °C/75 ± 5% RH, 0, 3, 6 months
Description: Accelerated testing was utilized to contrast the stability of ABZ and its salts in the solid state. The solid variations were placed in an airtight container at 40 ± 2 °C with a humidity level of 75 ± 5% RH, and specimens were harvested at the intervals of 0, 3, and 6 months. PXRD analysis was used to ascertain whether there were any substantial alterations in dissolution properties and the crystal structure of the sample.

[9] = both, Wistar, rat, plasma, po, 25 mg/kg
[10] = Wistar rats, oral 25 mg/kg, plasma ABZ

Compound	water adsorption [1]	IDR ([2]; pH 2 buffer)	IDR ([2]; pH 7.4 buffer)	stability under influencing factor conditions [3]	crystal transformation (PXRD) [3]	change of IDR on the 5th and 10th days compared to day 0 [3]	stability under accelerated test conditions [8]	PXRD spectra under accelerated stability conditions [8]	Cmax increase compared to ABZ ([4]; Wistar rats, oral 25 mg/kg)	MRT(0–24) ([4]; Wistar rats, oral 25 mg/kg)	MRT(0–∞) ([4]; Wistar rats, oral 25 mg/kg)	T1/2 ([4]; Wistar rats, oral 25 mg/kg)	Tmax ([4]; Wistar rats, oral 25 mg/kg)	AUC(0–24) [4, 10]	AUC(0–∞) [4, 10]	Cmax [4, 10]	also measured
CCCSc1ccc2nc(NC(=O)OC)[nH]c2c1 [ABZ, Albendazole]	3.86%	0.0096 mg·cm^−2·min^−1	0.0004 mg·cm^−2·min^−1	–	–	–	–	–	–	–	–	–	–	–	–	–	change of IDR after being placed at 50 °C ([3]; 50 °C, 5 and 10 days vs day 0): increased; half-life ([4]; both, Wistar, rat, in vivo, po, 25 mg/kg): 5.98 ± 3.27 h; AUC(0-inf) [4, 9]: 374 ± 136 ng·h/mL; AUC(0-t) [4, 9]: 352 ± 147 ng·h/mL; Cmax [4, 9]: 69.6 ± 51.7 ng/mL; MRT inf [4, 9]: 9.19 ± 5.1 h; MRT last [4, 9]: 7.07 ± 2.27 h; Tmax [4, 9]: 2.54 ± 1.57 h; log P [5]: 2.54; oral bioavailability in humans [6]: less than 5%; solubility in water [7]: 22.8 µg/mL (≈ 85.9 µM)
CCCSc1ccc2[nH]c(NC(=O)OC)nc2c1.O=C(O)C(O)C(O)C(=O)O [ABZ-DTA, albendazole D-tartrate]	70.15%	0.0730 mg·cm^−2·min^−1	0.0008 mg·cm^−2·min^−1	remained stable for 10 days	not observed	no statistically significant difference	remained stable for 6 months	unchanged	~4.6 times	6.67 ± 0.61 h	8.92 ± 1.51 h	6.11 ± 1.21 h	1.25 ± 0.61 h	1835.37 ± 379.84 ng/mL/h	1955.94 ± 431.79 ng/mL/h	322.68 ± 68.67 ng/mL	weight increase by water adsorption ([1]; sharp increase when the RH reached 60%): 47.59%
CCCSc1ccc2[nH]c(NC(=O)OC)nc2c1.O=C(O)C=CC(=O)O [ABZ-FMA, albendazole fumarate]	6.72%	0.0328 mg·cm^−2·min^−1	0.0009 mg·cm^−2·min^−1	remained stable for 10 days	not observed	no statistically significant difference	remained stable for 6 months	unchanged	approximately 3.8 times	6.41 ± 0.66 h	17.53 ± 15.90 h	14.07 ± 14.37 h	1.67 ± 1.17 h	1205.56 ± 855.61 ng/mL/h	1975.42 ± 1856.96 ng/mL/h	260.58 ± 179.73 ng/mL	–
CCCSc1ccc2[nH]c(NC(=O)OC)nc2c1.Cl [ABZ-HCl, albendazole hydrochloride]	37.65%	0.1128 mg·cm^−2·min^−1	0.0041 mg·cm^−2·min^−1	remained stable for 10 days	not observed	no statistically significant difference	remained stable for 6 months	unchanged	~6.9 times	7.66 ± 2.08 h	24.65 ± 33.76 h	16.85 ± 23.17 h	1.21 ± 0.68 h	3089.28 ± 1228.16 ng/mL/h	5371.96 ± 4618.85 ng/mL/h	478.96 ± 138.62 ng/mL	–
